The nature of assay [1]: Antiviral activity against bovine rotavirus RF in MA 104 cells assessed as neutralization of virus in solution before cell attachment. The format is functional, cell-based, Bovine rotavirus strain RF. To be noted: Rotavirus A.
Assay [2] can be described thus: Stimulation of proliferation of monkey MA104 cells at 30 ng/mL after 72 hrs relative to control. The format is functional, Macaca mulatta.
Assay [3] can be described thus: Inhibition of bovine rotavirus RF infectivity following virus attachment to MA 104 cells. The format is functional, cell-based, Bovine rotavirus strain RF. The note with it: Rotavirus A.
Assay [4] has as its system Caco-2. Description: Growth inhibition of human Caco-2 cells after 72 hrs. To be noted: Caco-2, 72 h. The format is functional, cell-based.
Assay [5] relates to Caco-2. Description: Cytotoxicity against human Caco-2 cells after 72 hrs. The format is cell-based. To be noted: Caco-2, 72 h.
Assay [6] in a line: Antiviral activity against bovine rotavirus RF in MA104 cells. The format is functional, cell-based, Bovine rotavirus strain RF. To be noted: Rotavirus A.

Values after ≈ are worked out from the molar mass of the structure shown.

Consider `O=C(Nc1ccn(C[C@@H]2O[C@H](CO)[C@@H](O)[C@H](F)C2=O)c(=O)n1)c1ccccc1`, for which the IC50 in assay [1] is 70 µg/mL (≈ 179 µM); in assay [3], 70 µg/mL (≈ 179 µM); in the assay on Caco-2 [4] it was 2500 µg/mL (≈ 6390 µM); in the assay with Caco-2 [5], 1500 µg/mL (≈ 3830 µM). The Activity in assay [2] is on record as 40%.
Take `Cc1cn([C@H]2C[C@H](N=[N+]=[N-])[C@@H](CO)O2)c(=O)[nH]c1=O` [ZIDOVUDINE]: the half-inhibitory concentration (IC50) in assay [1] came to 60 µg/mL (≈ 225 µM); in assay [3] it was 15 µg/mL (≈ 56.1 µM); in assay [6], 4 µg/mL (≈ 15 µM); in the assay on Caco-2 [4], 15 µg/mL (≈ 56.1 µM); with Caco-2 [5] it was 15 µg/mL (≈ 56.1 µM).

Usually IC50 stands for the concentration at which inhibition is half-maximal.

Source of the values: ChEMBL document CHEMBL1144539, “Fluoro-ketopyranosyl nucleosides: synthesis and biological evaluation of 3-fluoro-2-keto-beta-D-glucopyranosyl derivatives of N4-benzoyl cytosine” (Bioorg Med Chem, 2007).
